# Results from patent publication US20060008512A1, “Composition and methods for improved animal performance” (priority 2004, published 2006).
# Where two headings read alike, the source gives them in different places.
# Columns and labels:
# [1] = system: Hy-Line W-36 White Leghorn hens
# Procedure: Experiment 1. […] While acknowledging that injecting individual hens is commercially impractical (Webster, 2003), nevertheless an initial study was needed to establish the efficacy of T4 when it is delivered directly into the hens in precisely measured doses. The photoperiod was 17 hours of light per day (0330 hours to 2030 hours).
# [2] = system: growing cockerel and pullet chickens; conditions: 10 mg/kg dietary thyroid hormone; cited from earlier work
# [3] = system: broiler chickens; conditions: 1 mg/kg of diet, 0 to 28 days of age, cited from earlier work
smiles,measurement,setting,value
"N[C@@H](Cc1cc(I)c(Oc2cc(I)c(O)c(I)c2)c(I)c1)C(=O)O [L-thyroxine, 3,5,3′,5′-tetraiodo-L-thyronine]",Initial Body Weight,[1]; 250 mcg/kg body wt i.m. 12 d,1495 g
same,Hen-day egg production,"[1]; 250 mcg/kg body wt i.m. 12 d from day 15, day 14",93.8%
same,Hen-day egg production,"[1]; 250 mcg/kg body wt i.m. 12 d from day 15, day 16",87.5%
same,Hen-day egg production,"[1]; 250 mcg/kg body wt i.m. 12 d from day 15, day 18",68.8%
same,Hen-day egg production,"[1]; 250 mcg/kg body wt i.m. 12 d from day 15, day 20",56.3%
same,Hen-day egg production,"[1]; 250 mcg/kg body wt i.m. 12 d from day 15, day 22",25.0%
same,Hen-day egg production,"[1]; 250 mcg/kg body wt i.m. 12 d from day 15, day 24",31.3%
same,Hen-day egg production,"[1]; 250 mcg/kg body wt i.m. 12 d from day 15, day 26",37.5%
same,Hen-day egg production,"[1]; 250 mcg/kg body wt i.m. 12 d from day 15, day 28",31.3%
same,Hen-day egg production,"[1]; 250 mcg/kg body wt i.m. 12 d from day 15, day 30",37.5%
same,Time after start of injecting until egg production significantly reduced,"[1]; 500 and 1,000 μg T4 Groups",4 days
same,End of Injections Body Weight,[1]; 500 mcg/kg body wt i.m. 8 d,1299 g
same,Initial Body Weight,[1]; 500 mcg/kg body wt i.m. 8 d,1472 g
same,Hen-day egg production,"[1]; 500 mcg/kg body wt i.m. 8 d from day 15, day 14",87.5%
same,Hen-day egg production,"[1]; 500 mcg/kg body wt i.m. 8 d from day 15, day 16",93.8%
same,Hen-day egg production,"[1]; 500 mcg/kg body wt i.m. 8 d from day 15, day 18",31.3%
same,Hen-day egg production,"[1]; 500 mcg/kg body wt i.m. 8 d from day 15, day 20",31.3%
same,Hen-day egg production,"[1]; 500 mcg/kg body wt i.m. 8 d from day 15, day 22",6.3%
same,Hen-day egg production,"[1]; 500 mcg/kg body wt i.m. 8 d from day 15, day 24",6.3%
same,Hen-day egg production,"[1]; 500 mcg/kg body wt i.m. 8 d from day 15, day 26",6.3%
same,Hen-day egg production,"[1]; 500 mcg/kg body wt i.m. 8 d from day 15, day 28",6.3%
same,Hen-day egg production,"[1]; 500 mcg/kg body wt i.m. 8 d from day 15, day 30",25.0%
same,Size of regressed reproductive tracts at necropsy,"[1]; 1,000 and 4,000 μg T4 Groups",≤ 50 % normal size
same,End of Injections Body Weight,"[1]; 1,000 mcg/kg body wt i.m. 8 d",1167 g
same,Initial Body Weight,"[1]; 1,000 mcg/kg body wt i.m. 8 d",1513 g
same,Hen-day egg production,"[1]; 1,000 mcg/kg body wt i.m. 8 d from day 15, day 14",81.3%
same,Hen-day egg production,"[1]; 1,000 mcg/kg body wt i.m. 8 d from day 15, day 16",68.8%
same,Hen-day egg production,"[1]; 1,000 mcg/kg body wt i.m. 8 d from day 15, day 18",31.3%
same,Hen-day egg production,"[1]; 1,000 mcg/kg body wt i.m. 8 d from day 15, day 20",12.5%
same,Hen-day egg production,"[1]; 1,000 mcg/kg body wt i.m. 8 d from day 15, day 22",0.0%
same,Hen-day egg production,"[1]; 1,000 mcg/kg body wt i.m. 8 d from day 15, day 24",0.0%
same,Hen-day egg production,"[1]; 1,000 mcg/kg body wt i.m. 8 d from day 15, day 26",0.0%
same,Hen-day egg production,"[1]; 1,000 mcg/kg body wt i.m. 8 d from day 15, day 28",0.0%
same,Hen-day egg production,"[1]; 1,000 mcg/kg body wt i.m. 8 d from day 15, day 30",0.0%
same,Onset of molt in all cages after the start of injection,"[1]; 2,000 and 4,000 μg T4 Groups",9 days
same,End of Injections Body Weight,"[1]; 2,000 mcg/kg body wt i.m. 3 d",1234 g
same,Initial Body Weight,"[1]; 2,000 mcg/kg body wt i.m. 3 d",1510 g
same,Hen-day egg production,"[1]; 2,000 mcg/kg body wt i.m. 3 d from day 15, day 14",62.5%
same,Hen-day egg production,"[1]; 2,000 mcg/kg body wt i.m. 3 d from day 15, day 16",87.5%
same,Hen-day egg production,"[1]; 2,000 mcg/kg body wt i.m. 3 d from day 15, day 18",87.5%
same,Hen-day egg production,"[1]; 2,000 mcg/kg body wt i.m. 3 d from day 15, day 20",75.0%
same,Hen-day egg production,"[1]; 2,000 mcg/kg body wt i.m. 3 d from day 15, day 22",50.0%
same,Hen-day egg production,"[1]; 2,000 mcg/kg body wt i.m. 3 d from day 15, day 24",12.5%
same,Hen-day egg production,"[1]; 2,000 mcg/kg body wt i.m. 3 d from day 15, day 26",0.0%
same,Hen-day egg production,"[1]; 2,000 mcg/kg body wt i.m. 3 d from day 15, day 28",0.0%
same,Hen-day egg production,"[1]; 2,000 mcg/kg body wt i.m. 3 d from day 15, day 30",0.0%
same,End of Injections Body Weight,"[1]; 4,000 mcg/kg body wt i.m. 3 d",1165 g
same,Initial Body Weight,"[1]; 4,000 mcg/kg body wt i.m. 3 d",1387 g
same,Hen-day egg production,"[1]; 4,000 mcg/kg body wt i.m. 3 d from day 15, day 14",62.5%
same,Hen-day egg production,"[1]; 4,000 mcg/kg body wt i.m. 3 d from day 15, day 16",87.5%
same,Hen-day egg production,"[1]; 4,000 mcg/kg body wt i.m. 3 d from day 15, day 18",100.0%
same,Hen-day egg production,"[1]; 4,000 mcg/kg body wt i.m. 3 d from day 15, day 20",87.5%
same,Hen-day egg production,"[1]; 4,000 mcg/kg body wt i.m. 3 d from day 15, day 22",25.0%
same,Hen-day egg production,"[1]; 4,000 mcg/kg body wt i.m. 3 d from day 15, day 24",0.0%
same,Hen-day egg production,"[1]; 4,000 mcg/kg body wt i.m. 3 d from day 15, day 26",0.0%
same,Hen-day egg production,"[1]; 4,000 mcg/kg body wt i.m. 3 d from day 15, day 28",0.0%
same,Hen-day egg production,"[1]; 4,000 mcg/kg body wt i.m. 3 d from day 15, day 30",0.0%
same,Reduction in body weight gain compared to controls,[2],28.18%
same,Serum thyroxine level,[3]; first experiment (control 41.1),88.7 ng/mL
same,Serum thyroxine level,[3]; second experiment (control 21.1),69.3 ng/mL
